What was measured:
[1] = In vivo metabolite identification, pooled dog plasma (Q-TOF LC-MS/MS); details: i.v. SP-8356 50 mg/kg; for AUClast (%): % versus total AUClast of parent and all detected metabolites; for AUClast (AR∙h) × 10^2: AR = peak area ratio versus internal standard; for Tmax: male, Beagle, iv, time of highest AR
Procedure: (§1) Plasma samples from the i.v. administrations described in Section 4.2 and Section 4.3 were used in this study. Plasma samples pooled at each time point were subjected to sample preparation as described in Section 4.2. The prepared samples were analyzed by Agilent 6530 Q-TOF LC-MS/MS system equipped with dual AJS ESI ion source and Agilent 1200 series HPLC system as described below.
(§2) Chromatographic separation was achieved on an Agilent Eclipse C18 column (2.1 mm × 100 mm, 3.5 µm) by a gradient elution with a mobile phase consisting of 0.1 vol.% formic acid in water (A) and 0.1 vol.% formic acid in acetonitrile (B) at 50 °C: starting with 5 vol.% B for 2 min, ramping to 95 vol.% B over 1 min, maintaining for 3 min. The mobile phase flow rate was kept at 0.45 mL/min throughout the run. The sample injection volume was 5 µL. Ion source parameters were set as follows: capillary voltage, 3500 V; drying gas, 12 L/min and 300 °C; nebulizer gas, 30 psi; sheath gas, 12 L/min and 300 °C. Mass spectra were acquired in negative ion auto MS/MS mode (F, 135 V; CE, 25 eV) with full scan range of m/z (100–1000) and mass scan rate of 8 spectra/s. Metabolites were identified using Agilent MassHunter Metabolite ID software (version B.04.00) (Santa Clara, CA, USA). Chromatograms and mass spectra of the parent and identified metabolites were extracted using Agilent MassHunter Qualitative Analysis software (version B.05.00) (Santa Clara, CA, USA).

[2] = In vivo metabolite identification, pooled rat plasma (Q-TOF LC-MS/MS); details: i.v. SP-8356 20 mg/kg; for AUClast (%): % versus total AUClast of parent and all detected metabolites; for AUClast (AR∙h) × 10^2: AR = peak area ratio versus internal standard; for Tmax: male, SD, iv, time of highest AR
Procedure: as §1, §2

[3] = In vivo metabolite identification, pooled rat urine; details: rat pooled urine 0–24 h, single i.v. dose of SP-8356
Procedure: Rat urine samples were collected from the animal studies approved by the IACUC of Korea University (Approval No.: KUIACUC-2017-124; Approval date: Jul. 29, 2017). SP-8356 dissolved in DMA/Cremophor EL/saline (5/10/85 vol.%) was dosed i.v. at 10 mg/kg (n = 5/dose group) to male SD rats (8 weeks old; (255–275) g; Koatech Inc., Gyeonggi, Republic of Korea) housed individually in metabolic cages. Urine samples were collected for ((0–4), (4–8) and (8–24)) h. Pooled urine samples were mixed with equal volume of acetonitrile containing HSDH (1 μg/mL) as IS, followed by filtration with a syringeless filter device (Mini-UniPrep™, PTFE filter media with polypropylene housing, 0.45 µm). The filtrate was analyzed by Agilent 6530 Q-TOF LC-MS/MS system equipped with dual AJS ESI ion source and Agilent 1200 series HPLC system, as follows.
Chromatographic separation was achieved on an Agilent Eclipse C18 column (2.1 mm × 100 mm, 3.5 µm) by a gradient elution with a mobile phase consisting of 0.1 vol.% formic acid in water (A) and 0.1 vol.% formic acid in acetonitrile (B) at 50 °C: starting with 5 vol.% B for 2 min, ramping to 95 vol.% B over 1 min, maintaining for 3 min. The mobile phase flow rate was kept at 0.45 mL/min throughout the run. The sample injection volume was 5 µL. […]

| AUClast (%) [1] [%] | AUClast (AR∙h) × 10^2 [1] | Tmax [1] [min] | AUClast (%) [2] [%] | AUClast (AR∙h) × 10^2 [2] | Tmax [2] [min] | metabolites detected in urine [3] | SMILES |
| --- | --- | --- | --- | --- | --- | --- | --- |
| 0.07 | 2.7 (AR∙h) × 10^2 | 4.98 | 0.40 | 0.55 (AR∙h) × 10^2 | 1.02 | – | CC1(C)[C@@H]2C[C@H]1C(/C=C/c1cc(O)c(O)c(O)c1)=CC2=O [M3] |
| 3.05 | 120.5 (AR∙h) × 10^2 | 60 | 0.84 | 1.14 (AR∙h) × 10^2 | 15 | detected | COc1cc(C=CC2=CC(=O)C3CC2C3(C)C)cc(OC2OC(C(=O)O)C(O)C(O)C2O)c1OC1OC(C(=O)O)C(O)C(O)C1O (stereo not shown) [M5] |
